Common to all, as to assay type: biochemical
One assay has as its target T1, SIK1 (Homo sapiens, UniProt P57059).
T1 construct: purchased Carna Biosciences 02-131
In words: ADP-Glo kinase assay, SIK1. The method in brief: (§1)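 Kinase reactions ran 120 min at room temperature after ATP addition to enzyme-substrate mix. Remaining ATP was depleted (40 min) and ADP converted to ATP for luciferase detection (30 min), signal rising with activity. Final 1% DMSO and 10 μM staurosporine served as negative and positive controls.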
(In general: ADP-Glo turns the ADP formed in a reaction into a luminescent signal.)

In another assay the target is T2, SIK3 (Homo sapiens, UniProt Q9Y2K2).
T2 construct: purchased SignalChem S12-11G-100
T2 sequence (Q9Y2K2 59-365 limits assumed): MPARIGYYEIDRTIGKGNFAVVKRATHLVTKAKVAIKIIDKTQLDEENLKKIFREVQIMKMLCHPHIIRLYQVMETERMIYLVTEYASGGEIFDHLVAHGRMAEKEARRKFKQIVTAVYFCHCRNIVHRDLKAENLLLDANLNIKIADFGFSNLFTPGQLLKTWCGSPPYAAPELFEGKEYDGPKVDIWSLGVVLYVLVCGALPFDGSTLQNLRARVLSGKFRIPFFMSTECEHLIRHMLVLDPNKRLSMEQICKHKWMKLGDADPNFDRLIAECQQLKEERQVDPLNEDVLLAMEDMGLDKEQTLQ
Kind of assay: ADP-Glo kinase assay, SIK3. An outline of the steps:
as §1

The next assay has as its target T3, SIK2 (Homo sapiens, UniProt Q9H0K1).
T3 construct: purchased ThermoFisher Scientific PV4792
In words: ADP-Glo kinase assay, SIK2. An outline of the steps: as §1

In general, IC50 refers to the concentration that gives 50% inhibition. Lower therefore signals higher potency.

Molecules are shown by their SMILES.

T3 sequence (Q9H0K1 whole entry): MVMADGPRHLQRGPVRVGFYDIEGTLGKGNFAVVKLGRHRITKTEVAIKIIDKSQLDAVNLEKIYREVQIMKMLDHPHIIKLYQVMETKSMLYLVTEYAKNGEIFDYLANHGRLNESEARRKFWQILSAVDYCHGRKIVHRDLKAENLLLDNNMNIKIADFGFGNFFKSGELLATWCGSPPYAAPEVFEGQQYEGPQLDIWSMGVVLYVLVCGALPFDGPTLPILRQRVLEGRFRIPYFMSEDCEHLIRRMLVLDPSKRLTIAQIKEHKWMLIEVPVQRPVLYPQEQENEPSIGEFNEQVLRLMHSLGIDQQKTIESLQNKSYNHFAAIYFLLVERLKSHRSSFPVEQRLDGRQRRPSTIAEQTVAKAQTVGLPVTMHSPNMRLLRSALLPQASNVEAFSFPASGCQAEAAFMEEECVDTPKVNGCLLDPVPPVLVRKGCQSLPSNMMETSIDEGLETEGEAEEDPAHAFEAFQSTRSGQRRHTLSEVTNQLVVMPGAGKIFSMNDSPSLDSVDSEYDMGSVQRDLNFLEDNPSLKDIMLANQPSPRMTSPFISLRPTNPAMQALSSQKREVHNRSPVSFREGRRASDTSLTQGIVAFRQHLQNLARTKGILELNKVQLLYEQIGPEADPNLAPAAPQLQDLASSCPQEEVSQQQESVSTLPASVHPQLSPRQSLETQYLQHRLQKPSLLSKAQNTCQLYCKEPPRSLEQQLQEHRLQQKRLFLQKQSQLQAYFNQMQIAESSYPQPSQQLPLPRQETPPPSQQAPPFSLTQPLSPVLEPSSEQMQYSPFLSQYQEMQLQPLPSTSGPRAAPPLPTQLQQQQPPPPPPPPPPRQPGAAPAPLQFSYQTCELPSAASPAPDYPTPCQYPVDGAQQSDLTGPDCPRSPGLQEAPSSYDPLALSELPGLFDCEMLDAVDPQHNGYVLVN
T1 sequence (P57059 whole entry): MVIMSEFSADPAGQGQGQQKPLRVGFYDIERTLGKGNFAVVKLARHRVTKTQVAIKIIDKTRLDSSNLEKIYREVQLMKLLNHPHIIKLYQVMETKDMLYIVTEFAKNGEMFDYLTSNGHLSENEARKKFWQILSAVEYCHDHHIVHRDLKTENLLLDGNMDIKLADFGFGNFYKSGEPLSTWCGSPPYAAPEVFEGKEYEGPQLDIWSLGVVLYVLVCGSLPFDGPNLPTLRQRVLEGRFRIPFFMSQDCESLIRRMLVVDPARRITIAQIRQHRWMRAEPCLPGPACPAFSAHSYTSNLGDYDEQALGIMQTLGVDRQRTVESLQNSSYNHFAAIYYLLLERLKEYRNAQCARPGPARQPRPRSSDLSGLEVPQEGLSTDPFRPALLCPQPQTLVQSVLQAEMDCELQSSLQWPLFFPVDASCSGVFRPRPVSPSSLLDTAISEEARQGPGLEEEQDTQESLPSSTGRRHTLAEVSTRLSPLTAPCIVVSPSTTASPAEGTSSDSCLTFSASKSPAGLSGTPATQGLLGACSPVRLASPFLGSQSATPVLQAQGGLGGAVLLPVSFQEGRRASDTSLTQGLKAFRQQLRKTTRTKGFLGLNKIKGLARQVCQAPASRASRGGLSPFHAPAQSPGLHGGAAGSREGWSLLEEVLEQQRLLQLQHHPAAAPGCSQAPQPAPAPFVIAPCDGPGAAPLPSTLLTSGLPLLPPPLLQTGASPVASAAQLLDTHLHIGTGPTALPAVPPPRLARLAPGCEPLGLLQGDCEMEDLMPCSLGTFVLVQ

Regarding `COc1cc(-c2cnc3cc(C(C)(C)C#N)ccn23)cc(OC(F)F)c1C(=O)N1CCC(OC)CC1` [Cpd 46, 2-[3-[3-(difluoromethoxy)-5-methoxy-4-(4-methoxypiperidine-1-carbonyl)phenyl]imidazo[1,2-a]pyridin-7-yl]-2-methyl-propanenitrile], the IC50 against SIK1, at SIK3 and at SIK2 was > 500 nM each time.
`COc1cc(-c2cnn3cc(C(C)(C)C(N)=O)ccc23)cc(OC(F)F)c1C(=O)NC1CC1` [Cpd 244, 4-[6-(2-amino-1,1-dimethyl-2-oxo-ethyl)pyrazolo[1,5-a]pyridin-3-yl]-N-cyclopropyl-2-(difluoromethoxy)-6-methoxy-benzamide]: the values for the IC50 at SIK1, at SIK3 and on SIK2 were > 500 nM, 10 to 100 nM and > 500 nM, respectively.
For the molecule `COc1cc(-c2cnc3cc(C(C)(C)C#N)ccn23)cc(OC(F)F)c1C(=O)NCC1CCC1` [Cpd 90, 4-[7-(1-cyano-1-methyl-ethyl)imidazo[1,2-a]pyridin-3-yl]-N-(cyclobutylmethyl)-2-(difluoromethoxy)-6-methoxy-benzamide], the IC50 is > 500 nM against SIK1, 10 to 100 nM at SIK3 and > 500 nM against SIK2.
As to `COc1cc(-c2cnc3cc(C(C)(C)C#N)ccn23)cc(OC(F)F)c1C(=O)NCCN1CCOCC1` [Cpd 42, 4-[7-(1-cyano-1-methyl-ethyl)imidazo[1,2-a]pyridin-3-yl]-2-(difluoromethoxy)-6-methoxy-N-(2-morpholinoethyl)benzamide], the IC50 at SIK1 is > 500 nM; on SIK3, 100 to 500 nM; against SIK2, > 500 nM.
Consider `COCCN1CCCC1c1ccn2c(-c3cc(OC)c(C(=O)NC4CC4)c(OC(F)F)c3)cnc2c1` (stereo not drawn) [Cpd 196, N-cyclopropyl-2-(difluoromethoxy)-6-methoxy-4-[7-[1-(2-methoxyethyl)pyrrolidin-2-yl]imidazo[1,2-a]pyridin-3-yl]benzamide], for which the values for the IC50 at SIK1, against SIK3 and on SIK2 were 100 to 500 nM, 10 to 100 nM and 10 to 100 nM, respectively.
On to `COc1cc(-c2cnc3cc(C(C)N4CCO[C@H](CO)C4)ccn23)cc(OC(F)F)c1C(=O)NC1CC1` (stereo partly drawn) [Cpd 157, N-cyclopropyl-2-(difluoromethoxy)-4-[7-[1-[(2S)-2-(hydroxymethyl)morpholin-4-yl]ethyl]imidazo[1,2-a]pyridin-3-yl]-6-methoxy-benzamide], for which the IC50 against SIK1 is > 500 nM; at SIK3, 10 to 100 nM; against SIK2, > 500 nM.
Turning to `COc1cc(-c2cnc3cc(C4(C(=O)N5CCOCC5)CC4)ccn23)cc(OC(F)F)c1C(=O)NC1CC1` [Cpd 141, N-cyclopropyl-2-(difluoromethoxy)-6-methoxy-4-[7-[1-(morpholine-4-carbonyl)cyclopropyl]imidazo[1,2-a]pyridin-3-yl]benzamide], the values for the IC50 on SIK1, against SIK3 and at SIK2 were > 500 nM, 100 to 500 nM and > 500 nM, respectively.
Turning to `COc1cc(-c2cnc3cc(C4CCC4)ccn23)cc(OC(F)F)c1C(=O)NC1CC1` [Cpd 159, 4-(7-cyclobutylimidazo[1,2-a]pyridin-3-yl)-N-cyclopropyl-2-(difluoromethoxy)-6-methoxy-benzamide], the IC50 lay in the range of 10 to 100 nM on SIK1, 0.01 to 10 nM against SIK3 and 10 to 100 nM against SIK2.
Consider `COc1cc(-c2cnc3cc(C(C)(C)C#N)ccn23)cc(OC(F)F)c1C(=O)N1CCC(F)(F)C1` [Cpd 47, 2-[3-[3-(difluoromethoxy)-4-(3,3-difluoropyrrolidine-1-carbonyl)-5-methoxy-phenyl]imidazo[1,2-a]pyridin-7-yl]-2-methyl-propanenitrile], for which the IC50 is > 500 nM against SIK1, 10 to 100 nM on SIK3 and > 500 nM against SIK2.
On to `COc1cc(-c2cnc3cc(C4(C#N)CNC4)ccn23)cc(OC(F)F)c1C(=O)NC1CC1` [Cpd 110, 4-[7-(3-cyanoazetidin-3-yl)imidazo[1,2-a]pyridin-3-yl]-N-cyclopropyl-2-(difluoromethoxy)-6-methoxy-benzamide], for which the figures for the IC50 against SIK1, on SIK3 and at SIK2 were > 500 nM, 10 to 100 nM and > 500 nM, respectively.
Take `COc1cc(-c2cnc3cc(C(C)(C)C#N)ccn23)cc(OC(F)F)c1C(=O)NC1COC1` [Cpd 43, 4-[7-(1-cyano-1-methyl-ethyl)imidazo[1,2-a]pyridin-3-yl]-2-(difluoromethoxy)-6-methoxy-N-(oxetan-3-yl)benzamide]: the IC50 on SIK1 is > 500 nM; on SIK3, 10 to 100 nM; at SIK2, > 500 nM.
As for `COc1cc(-c2cnc3cc(C4COCCN4C(=O)OC(C)(C)C)ccn23)cc(OC(F)F)c1C(=O)NC1CC1` (stereo not drawn) [Cpd 186, tert-butyl 3-[3-[4-(cyclopropylcarbamoyl)-3-(difluoromethoxy)-5-methoxy-phenyl]imidazo[1,2-a]pyridin-7-yl]morpholine-4-carboxylate], the IC50 at SIK1, against SIK3 and at SIK2 was > 500 nM each time.
For `COc1cc(-c2cnn3cc(C(C)(C)C#N)ccc23)cc(OCCO)c1C(=O)NC1CC1` [Cpd 263, 4-[6-(1-cyano-1-methyl-ethyl)pyrazolo[1,5-a]pyridin-3-yl]-N-cyclopropyl-2-(2-hydroxyethoxy)-6-methoxy-benzamide], the IC50 against SIK1 is > 500 nM; against SIK3 it was 100 to 500 nM; against SIK2 it was > 500 nM.
For `CCN(CC)C(C)c1ccn2c(-c3cc(OC)c(C(=O)NC4CC4)c(OC(F)F)c3)cnc2c1` (stereo not drawn) [Cpd 148, N-cyclopropyl-4-[7-[1-(diethylamino)ethyl]imidazo[1,2-a]pyridin-3-yl]-2-(difluoromethoxy)-6-methoxy-benzamide], the IC50 at SIK1 is > 500 nM; at SIK3, 10 to 100 nM; on SIK2 it was > 500 nM.
On to `COc1cc(-c2cnc3cc(C(C)(C)c4noc(C)n4)ccn23)cc(OC(F)F)c1C(=O)NC1CC1` [Cpd 61, N-cyclopropyl-2-(difluoromethoxy)-6-methoxy-4-[7-[1-methyl-1-(5-methyl-1,2,4-oxadiazol-3-yl)ethyl]imidazo[1,2-a]pyridin-3-yl]benzamide], for which the IC50 was > 500 nM against SIK1, 10 to 100 nM at SIK3 and > 500 nM on SIK2.
Turning to `COc1cc(-c2cnc3cc(C(C)(O)CN(C)CCO)ccn23)cc(OC(F)F)c1C(=O)NC1CC1` (stereo not drawn) [Cpd 209, N-cyclopropyl-2-(difluoromethoxy)-4-[7-[1-hydroxy-2-[2-hydroxyethyl(methyl)amino]-1-methyl-ethyl]imidazo[1,2-a]pyridin-3-yl]-6-methoxy-benzamide], the figures for the IC50 on SIK1, against SIK3 and against SIK2 were > 500 nM, 10 to 100 nM and > 500 nM, respectively.
Turning to `COCCNC(=O)C1(c2ccn3c(-c4cc(OC)c(C(=O)NC5CC5)c(OC(F)F)c4)cnc3c2)CC1` [Cpd 142, N-cyclopropyl-2-(difluoromethoxy)-6-methoxy-4-[7-[1-(2-methoxyethylcarbamoyl)cyclopropyl]imidazo[1,2-a]pyridin-3-yl]benzamide], the values for the IC50 against SIK1, at SIK3 and on SIK2 were > 500 nM, 10 to 100 nM and > 500 nM, respectively.
On to `COc1cc(-c2cnc3cc(C(C)(C)OC)ncn23)cc(OC(F)F)c1C(=O)NC1CC1` [Cpd 118, N-cyclopropyl-2-(difluoromethoxy)-6-methoxy-4-[7-(1-methoxy-1-methyl-ethyl)imidazo[1,2-c]pyrimidin-3-yl]benzamide], for which the IC50 was > 500 nM against SIK1, 10 to 100 nM against SIK3 and > 500 nM on SIK2.

Source of the values: patent US12391679B2, “Benzamide-substituted bicyclic imidazo- and pyrazolo-fused -pyridine, -pyrimide, and -pyridazine compounds for treatment of inflammatory diseases” (ONCO3R Therapeutics BV, priority 2019, dated 2025).
